The supplement of paper PMC10307832

Experiments:
Assay in all cases: relative viability (nuclei count vs DMSO), 5 days (fraction); higher = more cells survive
[1] = compound: C[C@@H](N)c1ccc(C(=O)Nc2ccnc3[nH]ccc23)cc1 + Nc1nc2[nH]cc(CCc3ccc(C(=O)N[C@@H](CCC(=O)O)C(=O)O)cc3)c2c(=O)[nH]1 [Pemetrexed] (partner 0.2 µM)
In short: (§1)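 Five library-drug doses in √10 steps were combined with a fixed anchor-drug dose, or a single drug was given alone, by pin tool to lung cancer cell lines in 1536-well plates the day after seeding. Nuclei were stained and counted after 5 days. Relative viability is the nuclei count in treated wells over that in vehicle wells, taken as the median of duplicate plates.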

[2] = compound: O[C@H]1CC[C@H](Nc2ncc3nc(Nc4c(F)cc(F)cc4F)n([C@H]4CCOC4)c3n2)CC1 [Tanzisertib] + Nc1ncn([C@H]2C[C@H](O)[C@@H](CO)O2)c(=O)n1 [Decitabine] (partner 2 µM)
In short: as §1

[3] = compound: C1CNCCC1C2=CC(=NN2)C3=CC=NC=C3 + COc1cc2c(Oc3ccc(NC(=O)C4(C(=O)Nc5ccc(F)cc5)CC4)cc3F)ccnc2cc1OCCCN1CCOCC1 [Foretinib] (partner 0.25 µM)
In short: as §1

[4] = compound: O[C@H]1CC[C@H](Nc2ncc3nc(Nc4c(F)cc(F)cc4F)n([C@H]4CCOC4)c3n2)CC1 [Tanzisertib] + Cc1cc(Nc2cc(N3CCN(C)CC3)nc(Sc3ccc(NC(=O)C4CC4)cc3)n2)n[nH]1 [Tozasertib] (partner 0.1 µM)
In short: as §1

Row | Cell Line | relative viability ([1]; first compound 0.04 µM) | relative viability ([1]; first compound 0.1265 µM) | relative viability ([1]; first compound 0.4 µM) | relative viability ([1]; first compound 4 µM) | relative viability ([2]; first compound 0.08 µM) | relative viability ([2]; first compound 0.253 µM) | relative viability ([2]; first compound 0.8 µM) | relative viability ([2]; first compound 2.53 µM) | relative viability ([2]; first compound 8 µM) | relative viability ([3]; first compound 0.08 µM) | relative viability ([3]; first compound 0.8 µM) | relative viability ([3]; first compound 2.53 µM) | relative viability ([3]; first compound 8 µM) | relative viability ([4]; first compound 0.08 µM) | relative viability ([4]; first compound 0.253 µM) | relative viability ([4]; first compound 0.8 µM) | relative viability ([4]; first compound 2.53 µM) | relative viability ([4]; first compound 8 µM) | relative viability ([1]; first compound 1.265 µM)
1 | PC-14 | 0.139 | 0.126 | 0.138 | 0.169 | 0.261 | 0.23 | 0.212 | 0.192 | 0.202 | 0.942 | 1.03 | 1.01 | 0.942 | 0.652 | 0.605 | 0.54 | 0.537 | 0.499 | 
2 | NCI-H2085 | 0.825 | 0.863 | 0.732 | 0.668 |  | 0.603 | 0.583 | 0.54 | 0.549 | 1.02 | 0.698 | 0.916 | 0.901 | 0.9 | 0.822 | 0.914 | 0.644 | 0.59 | 0.733
3 | NCI-H2170 | 0.284 | 0.249 | 0.271 | 0.263 | 0.483 | 0.479 | 0.465 | 0.485 | 0.435 | 0.897 | 0.974 | 1 | 1.01 | 0.881 | 0.789 | 0.669 | 0.717 | 0.651 | 0.277
4 | HCC-78 | 0.942 | 0.928 | 0.906 | 0.963 | 0.683 | 0.675 | 0.666 | 0.704 | 0.622 | 0.532 | 0.507 | 0.602 | 0.536 | 0.493 | 0.392 | 0.422 | 0.389 | 0.329 | 0.98
5 | NCI-H1395 | 0.888 | 0.95 | 0.927 | 0.741 | 0.798 | 0.726 | 0.747 | 0.737 | 0.72 | 0.982 | 0.821 | 1.15 | 1.04 | 0.869 | 0.773 | 0.783 | 0.687 | 0.712 | 
6 | NCI-H2126 | 0.697 | 0.684 | 0.764 | 0.738 | 0.558 | 0.586 | 0.574 | 0.592 | 0.658 | 1.18 | 1.31 | 1.23 | 1.29 | 0.91 | 0.872 | 0.85 | 0.813 | 0.859 | 0.57
7 | H3255 | 0.556 | 0.554 | 0.552 | 0.501 | 0.799 | 0.598 | 0.647 | 0.482 | 0.448 | 0.861 | 0.983 | 1.03 | 0.9 | 0.736 | 0.607 | 0.675 | 0.588 | 0.427 | 0.555
8 | HCC-15 | 0.242 | 0.242 | 0.209 | 0.233 | 0.66 | 0.674 | 0.737 | 0.659 | 0.647 | 0.899 | 1.18 | 1.07 | 1.03 | 0.535 | 0.294 | 0.391 | 0.4 | 0.27 | 0.212
9 | NCI-H661 | 0.938 | 0.964 | 0.943 | 0.639 | 0.55 | 0.566 | 0.522 | 0.502 | 0.487 | 1.1 | 1.05 | 1.01 | 1.02 | 0.361 | 0.345 | 0.331 | 0.35 | 0.359 | 0.811
10 | NCI-H2009 | 0.984 | 0.975 | 0.943 | 0.765 | 0.366 | 0.437 | 0.387 | 0.355 | 0.377 | 1.2 | 1.19 | 1.17 | 1.19 | 0.804 | 0.72 | 0.775 | 0.754 | 0.661 | 0.866
11 | ChaGo-K-1 | 0.259 | 0.277 | 0.257 | 0.241 | 0.519 | 0.531 | 0.493 | 0.512 | 0.537 | 0.997 | 1.01 | 0.886 | 0.923 | 0.251 | 0.227 | 0.216 | 0.218 | 0.217 | 0.234
12 | COR-L23 | 0.204 | 0.195 | 0.188 | 0.178 | 0.454 | 0.502 | 0.411 | 0.511 | 0.467 | 1.07 | 0.946 | 1.01 | 0.931 | 0.201 | 0.228 | 0.184 | 0.189 | 0.121 | 0.201
13 | EMC-BAC-2 | 0.401 | 0.422 | 0.452 | 0.402 | 1.05 | 0.947 | 0.957 | 0.96 | 0.937 | 0.937 | 1.05 | 1.16 | 0.843 | 0.268 | 0.275 | 0.262 | 0.277 | 0.277 | 0.471
14 | LCLC-103H | 0.417 | 0.426 | 0.493 | 0.407 | 0.763 | 0.768 | 0.711 | 0.672 | 0.72 | 0.777 | 0.695 | 0.72 | 0.883 | 0.597 | 0.442 | 0.499 | 0.475 | 0.457 | 0.51
15 | LK-2 | 0.345 | 0.264 | 0.22 | 0.362 | 0.325 | 0.379 | 0.217 | 0.381 | 0.221 | 1.05 | 1.27 | 1.03 | 1.42 | 0.164 | 0.18 | 0.17 | 0.163 | 0.169 | 0.282
16 | SW 1573 | 0.792 | 0.792 | 0.845 | 0.703 | 0.595 | 0.471 | 0.535 | 0.516 | 0.394 | 0.679 | 0.967 | 0.901 | 1.03 | 0.174 | 0.185 | 0.151 | 0.204 | 0.139 | 0.582
17 | NCI-H2405 |  | 1.09 | 0.918 | 0.306 | 0.784 | 0.783 | 0.76 | 0.914 | 0.629 | 1.05 | 1.04 | 1.11 | 1.05 | 0.784 | 0.744 | 0.844 | 0.823 | 0.73 | 0.567
